This note sets out measurements from patent US8044204B2, “8-methoxy-9H-isothiazolo[5,4-b]quinoline-3,4-diones and related compounds as anti-infective agents” (Achillion Pharmaceuticals, Inc., priority 2005, dated 2011).

Structures are written as SMILES. Where only a bound is given, the exact number is not on record here.

Type in all cases: cell-based
Assay [1] concerns MRSA strain ATCC 700699. Nature of the assay: Minimum Inhibitory Concentration (MIC) assay, Methicillin Resistant S. Aureus. The conditions noted are these: Staphylococcus aureus; broth microdilution; read-out: MIC against Methicillin Resistant S. Aureus. An excerpt: It has been unexpectedly discovered that substitution of compounds of Formula I and Formula II with a methoxy substituent at the R8 position increases the anti-microbial activity of the compound against Methicillin resistant Staphylococcus Aureus bacteria while at the same time decreasing the cellular toxicity of the compound. The simultaneous increase in compound activity and decrease in compound toxicity provides a greater therapeutic range for compounds of Formula I and Formula II in which R8 is methoxy; i.e. the range of doses of such compounds that will produce beneficial effects without harmful side effects is increased. […] Therapeutic range is determined using a standard assay of cytotoxicity such as the Alamar blue assay provided in Example 10.
(§1) The antimicrobial activity of the compounds of the invention may be evaluated by a number of methods, including the following visual minimum inhibitory concentration (MIC) assay. This assay determines the minimum concentration of compound required to inhibit growth of a bacterial strain.
(§2) Minimum Inhibitory Concentration (MIC) Assay
(§3) Whole-cell antibacterial activity is determined by broth microdilution using conditions recommended by the NCCLS (see National Committee for Clinical Laboratory Standards. 2001. Performance standards for antimicrobial susceptibility testing: 11th informational supplement. Vol. 21, no. 1, M100-S11. National Committee for Clinical Laboratory Standards, Wayne, Pa.). Test compounds are dissolved in DMSO and diluted 1:50 in Mueller-Hinton II broth (Becton-Dickinson) to produce a 256 μg/ml stock solution. In a 96-well microtiter plate, the compound solution is serially two-fold diluted in Mueller-Hinton II broth. After the compounds are diluted, a 50 μl aliquot of the test organism (˜1×10^6 cfu/mL) is added to each well of the microtiter plate. The final test concentrations ranges from 0.125-128 μg/mL. Inoculated plates are incubated in ambient air at 37° C. for 18 to 24 hours. The organisms selected for testing included laboratory strains S. aureus ATCC 29213 and E. coli ATCC 25922 (strains purchased from American Type Culture Collection, Manassas, Va.), S. aureus FQR700699, and Paeruginosa 27853. The minimum inhibitory concentration (MIC) is determined as the lowest concentration of compound that inhibited visible growth of the test organism.
(In broth dilution the organism is exposed to a series of concentrations in liquid medium.)

The test system of assay [2] is S. aureus ATCC 29213. Nature of the assay: Minimum Inhibitory Concentration (MIC) assay, S. aureus. The note with it: Staphylococcus aureus, ATCC29213; broth microdilution; read-out: MIC against S. Aureus. As to the method: as §1, §2, §3
For assay [3], the system named is E. coli ATCC 25922. In words: Minimum Inhibitory Concentration (MIC) assay, E. coli. The note with it: Escherichia coli, ATCC25922; broth microdilution; read-out: MIC against E. coli. The procedure: as §1, §2, §3

Turning to `COc1c(N2CC[C@@H](C(C)NC(C)C)C2)c(F)cc2c(=O)c3c(=O)[nH]sc3n(C3CC3)c12` (stereo partly drawn) [Compound 112, (R)-9-cyclo-propyl-6-fluoro-7-(3-(1-(isopropyl-amino)ethyl)pyrrolidin-1-yl)-8-methoxyiso-thiazolo[5,4-b]quinoline-3,4(2H,9H)-dione], the minimum inhibitory concentration (MIC) in assay [1] and in assay [2] was not above 1 µg/mL each time.

Take `CC[C@@H](NC)[C@@H]1CCN(c2c(F)cc3c(=O)c4c(=O)[nH]sc4n(C4CC4)c3c2OC)C1` [Compound 92, 9-cyclopropyl-6-fluoro-8-methoxy-7-((R)-3-((R)-1-(methylamino)-propyl)pyrrolidin-1-yl)isothia-zolo[5,4-b]quinoline-3,4(2H,9H)-dione]: the MIC in assay [1] and in assay [2] was not above 1 µg/mL throughout.

As to `CN[C@H](C)[C@@H]1CCN(c2c(F)cc3c(=O)c4c(=O)[nH]sc4n(C4CC4)c3c2OC)C1` [Compound 107, 9-cyclopropyl-6-fluoro-8-methoxy-7-((R)-3-((R)-1-(methyl-amino)ethyl)pyrrolidin-1-yl)isothia-zolo[5,4-b]quinoline-3,4(2H,9H)-dione], the MIC in assay [1] and in assay [2] was not above 1 µg/mL throughout.

`CCn1c2s[nH]c(=O)c2c(=O)c2cc(F)c(N3CC[C@@H](C(C)(C)N)C3)c(OC)c21` [Compound 59, (R)-7-(3-(2-aminopropan-2-yl)pyrrolidin-1-yl)-9-ethyl-6-fluoro-8-methoxyiso-thiazolo[5,4-b]quinoline-3,4(2H,9H)-dione]: the MIC in assay [1] and in assay [2] was not above 1 µg/mL throughout.

Turning to `O=c1[nH]sc2c1c(=O)c1cc(F)c(N3CCSCC3)cc1n2C1CC1` [Compound 28, 9-cyclopropyl-6-fluoro-7-thiomorpho-linoiso-thiazolo[5,4-b]quinoline-3,4(2H,9H)-dione], the MIC in assay [2] and in assay [3] was not above 1 µg/mL in each case.

As to `CCn1c2cc(N3CCC(N(C)C)C3)c(F)cc2c(=O)c2c(=O)[nH]sc21` (centres unmarked) [Compound 34, 7-(3-(dimethyl-amino)pyrrolidin-1-yl)-9-ethyl-6-fluoroisothia-zolo[5,4-b]quinoline-3,4(2H,9H)-dione], the MIC in assay [2] and in assay [3] was not above 1 µg/mL each time.

For the compound `CC(C)(C)OC(=O)NC1CCN(c2cc3c(cc2F)c(=O)c2c(=O)[nH]sc2n3C2CC2)C1` (centres unmarked) [Compound 27, tert-butyl 1-(9-cyclopropyl-6-fluoro-3,4-dioxo-2,3,4,9-tetrahydroiso-thiazolo[5,4-b]quinolin-7-yl)pyrrolidin-3-ylcarbamate], the MIC in assay [2] and in assay [3] was not above 1 µg/mL in each case.

In the case of `O=c1[nH]sc2c1c(=O)c1cc(F)c(N3CCC(O)C3)cc1n2C1CC1` (centres unmarked) [Compound 18, 9-cyclopropyl-6-fluoro-7-(3-hydroxy-pyrrolidin-1-yl)isothia-zolo[5,4-b]quinoline-3,4(2H,9H)-dione], the MIC in assay [2] and in assay [3] was not above 1 µg/mL each time.

`COc1cc2c(=O)c3c(=O)[nH]sc3n(C3CC3)c2c(F)c1N1CC[C@@H](C(C)(C)N)C1` [Compound 83, (R)-7-(3-(2-aminopropan-2-yl)pyrrolidin-1-yl)-9-cyclopropyl-8-fluoro-6-methoxyiso-thiazolo[5,4-b]quinoline-3,4(2H,9H)-dione]: the MIC in assay [2] and in assay [3] was not above 1 µg/mL each time.

In the case of `O=c1[nH]sc2c1c(=O)c1cc(F)c(N3CCOCC3)cc1n2C1CC1` [Compound 19, 9-cyclopropyl-6-fluoro-7-morpholino-isothiazolo[5,4-b]quinoline-3,4(2H,9H)-dione], the MIC in assay [2] and in assay [3] was not above 1 µg/mL each time.

Take `CCn1c2cc(N3CCSCC3)c(F)cc2c(=O)c2c(=O)[nH]sc21` [Compound 37, 9-ethyl-6-fluoro-7-thiomorpho-linoiso-thiazolo[5,4-b]quinoline-3,4(2H,9H)-dione]: the MIC in assay [2] and in assay [3] was not above 1 µg/mL throughout.

In the case of `CCn1c2cc(NCc3ccncc3)c(F)cc2c(=O)c2c(=O)[nH]sc21` [Compound 35, 9-ethyl-6-fluoro-7-(pyridin-4-ylmethylamino) isothiazolo[5,4-b]quinoline-3,4(2H,9H)-dione], the MIC in assay [2] and in assay [3] was not above 1 µg/mL throughout.

For `COc1c(N2CC[C@@H](C(C)N(C)C)C2)c(F)cc2c(=O)c3c(=O)[nH]sc3n(C3CC3)c12` (stereo partly drawn) [Compound 81, (R)-9-cyclo-propyl-7-(3-(1-(di-methylamino)ethyl)pyrrolidin-1-yl)-6-fluoro-8-methoxyiso-thiazolo[5,4-b]quinoline-3,4(2H,9H)-dione], the MIC in assay [2] and in assay [3] was not above 1 µg/mL throughout.

Turning to `O=c1[nH]sc2c1c(=O)c1cc(F)c(NCCN3CCOCC3)cc1n2C1CC1` [Compound 29, 9-cyclopropyl-6-fluoro-7-(2-morpholino-ethyl-amino)iso-thiazolo[5,4-b]quinoline-3,4(2H,9H)-dione], the MIC in assay [2] and in assay [3] was not above 1 µg/mL each time.

On to `CNC(C)(C)[C@@H]1CCN(c2ccc3c(=O)c4c(=O)[nH]sc4n(C4CC4)c3c2OC)C1` [Compound 79, (R)-9-cyclo-propyl-8-methoxy-7-(3-(2-(methyl-amino)propan-2-yl)pyrrolidin-1-yl)isothia-zolo[5,4-b]quinoline-3,4(2H,9H)-dione], for which the MIC in assay [2] and in assay [3] was not above 1 µg/mL each time.

Take `COc1c(N2CC[C@H](CN)C2)ccc2c(=O)c3c(=O)[nH]sc3n(C3CC3)c12` [Compound 90, (R)-7-(3-(aminomethyl)-pyrrolidin-1-yl)-9-cyclopropyl-8-methoxyiso-thiazolo[5,4-b]quinoline-3,4(2H,9H)-dione]: the MIC in assay [2] and in assay [3] was not above 1 µg/mL each time.

As for `CCn1c2cc(N3CCN(CCN(C)C)CC3)c(F)cc2c(=O)c2c(=O)[nH]sc21` [Compound 36, 7-(4-(2-(dimethyl-amino)ethyl)piperazin-1-yl)-9-ethyl-6-fluoroisothia-zolo[5,4-b]quinoline-3,4(2H,9H)-dione], the MIC in assay [2] and in assay [3] was not above 1 µg/mL in each case.

For `CN(C)C1CCN(c2cc3c(cc2F)c(=O)c2c(=O)[nH]sc2n3C2CC2)C1` (centres unmarked) [Compound 22, 9-cyclopropyl-7-(3-(dimethyl-amino)pyrrolidin-1-yl)-6-fluoroiso-thiazolo[5,4-b]quinoline-3,4(2H,9H)-dione], the MIC in assay [2] and in assay [3] was not above 1 µg/mL each time.

Regarding `O=c1[nH]sc2c1c(=O)c1cc(F)c(N3CCN(CCN4CCCC4)CC3)cc1n2C1CC1` [Compound 30], the MIC in assay [2] and in assay [3] was not above 1 µg/mL throughout.

For the compound `CN(C)CCN1CCN(c2cc3c(cc2F)c(=O)c2c(=O)[nH]sc2n3C2CC2)CC1` [Compound 32, 9-cyclopropyl-7-(4-(2-(dimethyl-amino)ethyl)piperazin-1-yl)-6-fluoroiso-thiazolo[5,4-b]quinoline-3,4(2H,9H)-dione], the minimal inhibitory concentration (MIC) in assay [2] and in assay [3] was not above 1 µg/mL each time.

As for `COc1c(N2CC[C@@H](CN(C)C)C2)c(F)cc2c(=O)c3c(=O)[nH]sc3n(C3CC3)c12` [Compound 86, (S)-9-cyclo-propyl-7-(3-((dimethyl-amino)methyl)pyrrolidin-1-yl)-6-fluoro-8-methoxyiso-thiazolo[5,4-b]quinoline-3,4(2H,9H)-dione], the minimum inhibitory concentration (MIC) in assay [2] and in assay [3] was not above 1 µg/mL throughout.

Consider `O=c1[nH]sc2c1c(=O)c1cc(F)c(N3CCNCC3)cc1n2C1CC1` [Compound 20, 9-cyclopropyl-6-fluoro-7-(piperazin-1-yl)isothia-zolo[5,4-b]quinoline-3,4(2H,9H)-dione], for which the MIC in assay [2] and in assay [3] was not above 1 µg/mL each time.

Consider `O=C1CCN(c2cc3c(cc2F)c(=O)c2c(=O)[nH]sc2n3C2CC2)CC1` [Compound 40, 9-cyclopropyl-6-fluoro-7-(4-oxo-piperidin-1-yl)isothia-zolo[5,4-b]quinoline-3,4(2H,9H)-dione], for which the MIC in assay [2] and in assay [3] was not above 1 µg/mL in each case.

As for `O=c1[nH]sc2c1c(=O)c1cc(F)c(N3CCC(O)CC3)cc1n2C1CC1` [Compound 41, 9-cyclopropyl-6-fluoro-7-(4-hydroxy-piperidin-1-yl)isothia-zolo[5,4-b]quinoline-3,4(2H,9H)-dione], the MIC in assay [2] and in assay [3] was not above 1 µg/mL throughout.

As for `CN1CCN(c2cc3c(cc2F)c(=O)c2c(=O)[nH]sc2n3C2CC2)CC1` [Compound 21, 9-cyclopropyl-6-fluoro-7-(4-methyl-piperazin-1-yl)isothia-zolo[5,4-b]quinoline-3,4(2H,9H)-dione], the minimum inhibitory concentration (MIC) in assay [2] and in assay [3] was not above 1 µg/mL in each case.

As a reminder, the MIC is the lowest concentration that inhibits growth of the organism.
